Assays:
[1] = test system: isolated liver rough endoplasmic reticulum (RER); type: biochemical, rat
[2] = test system: isolated liver rough endoplasmic reticulum (RER); type: biochemical, rat; remark: listed apart in the source

Molecule | Degranulation (%) [1] | degranulation obtained from RNA/protein ratios [2] [%]
ClCOCCl [Bis(Chloromethyl)ether] | 47. % | –
NN [Hydrazine] | 2 - 4% | –
EDTA | – | 59.8
CCC1(c2ccccc2)C(=O)NC(=O)NC1=O [Phenobarbital] | 0-6% | –
Aflatoxin B1 | 1-3% | –

— article PMC2009656 (British Journal of Cancer, 1978)
